Key:
[1] = system: TYD-Luc cells (T47DERαD538G-luciferase human breast cancer cells) tumors; test: Orthotopic TDG-Luc mouse xenograft, bioluminescent imaging; assay type: in vivo
Description: FIG. 41. SERK-F6 eradicates mutant ERα primary and metastatic breast cancer. a-c, TYS-luc. orthotopic tumors were established in NSG ovariectomized mice (no E2 pellet, 60 days to establish) and dosed daily as indicated (n=5-6). b, representative examples of bioluminescence images of SERK-F6 treated mice (7 days). d,e, TDG-luc. orthotopic tumors were established in NSG ovariectomized mice (no E2 pellet, 120 days to establish) and dosed daily as indicated (n=4-5). e, Bioluminescence image of SERK-F6 treated mouse with TDG-luc. tumor burden after 7 days. f, MYS-luc. orthotopic tumors were established in NSG ovariectomized mice (no E2 pellet, 45 days to establish) and dosed daily as indicated (n=4-5). g, MDG-luc. orthotopic tumors were established in NSG ovariectomized mice (no E2 pellet, 45 days to establish) and dosed daily as indicated (n=4-5). h, Metastatic model with MDG-luc. cells injected into the tail-vein of NSG ovariectomized mice (no E2 pellet, 1.5 months to establish) and mice were dosed daily as indicated (n=4-5).
FIG. 4A illustrates how IC50's for cell death were determined. 4B tests the ability BHPI, (−)-105, and 01-15 to kill. […] Large orthotopic breast tumors of TYD-Luc cells (T47DERαD538G-luciferase human breast cancer cells) were allowed to form for 4 months in immune suppressed NSG mice. […]

[2] = Pharmacokinetics, brain penetration and tolerability in mice; assay type: in vivo, mouse
Description: FIG. 40. SERK-F6 is tolerated, reaches biologically relevant concentrations, and crosses the blood-brain barrier in vivo. a, Serum concentrations of SERK-F6 after indicated doses, route of administration, and time. Concentration was determined via LC/MS/MS analysis. […] AUC: Area Under the Curve, Cmax: maximum concentration, t1/2: half-life. c,d, Mice (CD-1) were treated with the indicated doses and times, then sacrificed and their serum and brains collected. Concentrations were determined via LC/MS/MS analysis. […] Treatment arms: vehicle daily (n=3), vehicle weekly (n=3), fulv. weekly (5 mg/mouse, s.c., n=6), SERK-F6 daily (10 or 40 mg/kg p.o.). Vehicle arms were combined. g, Mass of tumors harvested from mice. h, observed murine weight during this MCF-7 study (n=6). i,j, Tumor measurements for MCF-7 bilateral orthotopic model (n=4-5).
The pharmacokinetics of SERK-F6 was measured in mice (FIG. 40A-B).

parental T47D cells = test: MTS growth assay, parental T47D cells; assay type: cell-based, human; conditions: 100 nM and 1 μM; 4 days
Description: ERα containing T47D human breast cancer cells able to survive in 1 μM BHPI were selected by clonal outgrowth. The effect of 100 nM and 1 μM BHPI and (−)-105 on growth of the (BHPI-sensitive) parental T47D cells and partially BHPI-resistant T47D clones 1,3,8, and 11 was evaluated. 4,000 cells/well were plated. Cell number was determined by MTS assay from a standard curve of absorbance versus cell number. […] Thus, in 4 days (−)-105 killed some, but not all, of the resistant cells.

[3] = system: MYS and MDG cells (MCF-7 with Y537S or D538G ERα) tumors; test: MYS-luc / MDG-luc orthotopic tumors; assay type: in vivo, mouse; conditions: daily dosing
Description: FIG. 41. […]
FIG. 43. SERK-F6-mediated eradication of MYS/MDG tumors is dependent on quantitative cell killing. a-b, MYS-luc. orthotopic tumors were established in NSG ovariectomized mice (no E2 pellet, ˜45 days to establish) and dosed daily as indicated (n=5-6), b, Treatment of MYS-luc, tumors were stopped after 21 daily doses of SERK-F6 and mice tumor burden was tracked via bioluminescence. […]

MCF-7 cells = test: Trypan Blue exclusion cell death assay, MCF-7; assay type: cell-based, human; conditions: 24 hours
Description: TRYPAN BLUE: For decades, viable cells have been measured by their ability to exclude the dye Trypan Blue. […] Dead cells, which have lost membrane integrity, take up the dye and are blue. Thus, the percentage of dead cells is the percentage of cells that are Trypan Blue positive out of the total cell population. Quantitative assessment of Trypan Blue uptake uses a cell counter from Fisher. Since the assay is instrument based, there is no observer bias in determining the percentage of Trypan Blue positive cells.
TRYPAN BLUE ASSAYS: Assays are performed on cells in 6 well plates: 300,000 cells are plated in each well of a 6-well plate in 3 ml of medium. After 24 hours, the DMSO vehicle or the indicated compound is added (in 1000th of the vol.) The cells incubated for an additional 24 hours, and then harvested in 0.25 ml of trypsin, followed after harvest by 0.75 ml of medium. […]
The Trypan Blue cell death assay was used to evaluate the ability of the active enantiomer of 105 (−) [(−)-105] to kill ERα positive MCF-7 and TYS-Luc, human breast cancer cells. […] After 24 hours, the cells were harvested, and the % dead cells was determined by automated Trypan Blue exclusion using the Countess II automated hemocytometer. Percentage of viable cells was calculated by doing 100-(Cell Death %). […]

O=C1Nc2c(C(F)(F)F)cccc2C1(c1ccc(O)cc1)c1ccc(OC(F)(F)F)cc1 (single isomer, unassigned; (-)) [(−)-105, 3-(4-hydroxyphenyl)-3-(4-(trifluoromethoxy)phenyl)-7-(trifluoromethyl)indolin-2-one]
efficacy on oral administration ([1]; 40 mg/kg oral gavage, 3 days): effective when administered orally | effect on D538G mutant tumors (TDG cell line) ([1]; daily dosing): destruction of D538G mutant tumors | blood-brain barrier penetration ([2]; CD-1 mice, serum and brain LC/MS/MS): blood-brain barrier penetrant | effect on ERα tissues as measured by circulating estradiol levels ([2]; long-term treatment): does not ablate ERα tissues | tolerability in vivo ([2]; mouse, in vivo): well-tolerated | concentrations reached in vivo ([2]; serum, LC/MS/MS): can achieve biologically relevant concentrations in-vivo | effect on growth / cell number (parental T47D cells): killed all the T47D cells | tumor response [3]: Dramatic tumor regressions were observed | killing of MCF-7 cells, dose response (MCF-7 cells): superior to BHPI

Reference: patent US11046647B2, “Activators of the unfolded protein response” (The Board of Trustees of the University of Illinois, priority 2018, dated 2021)
